{"source": "patent US20230181562A1", "about": "“USE OF A MULTIFUNCTIONAL LIGAND FOR TREATING DRY EYES, MEIBOMIAN GLAND DYSFUNCTIONS AND LACRIMAL GLAND DYSFUNCTIONS” (H4 ORPHAN PHARMA, priority 2020, published 2023)", "key": {"basophils": {"tested_on": "basophils", "test": "Flow CAST basophil degranulation (CD63+/CCR3+ flow cytometry)", "type": "cell-based, human", "source_text": "The inventors have used the Kit-Flow CAST (www.buhlmannlabs.ch/products-solutions/cellular-allergy/flow-cast/) to test the action of tritoqualine on the inhibition of basophil degranulation. The marker for degranulation is CD63. Upon basophil activation, CD63 markers bound to intracytoplasmic granules will fuse with the plasma membrane. They are then expressed on the cell surface: activated basophils thereby become CD63+. Further to CD63, another marker specific to basophils makes it possible to better target them, it is CCR3 (chemokine receptor 3). The latter is always expressed by this cell type. Thus, the degranulation of basophils is identified in the flow cytometry window as CD63+ and CCR3+.\nIn a first step 2 patients have been sampled. substance P has been tested at a dose of 10 μmoles.\nAfter 30 minutes, degranulation in each of the tubes is around 7% as with the negative control."}, "non-mutated CFTR": {"biological_target": "T1, non-mutated CFTR (Homo sapiens, UniProt P13569)", "T1 construct": "host or cells: human epithelial cells (called glandular / lacrimal gland epithelial cells) grown on Snapwell filters", "T1 sequence (P13569 whole entry, change not shown)": "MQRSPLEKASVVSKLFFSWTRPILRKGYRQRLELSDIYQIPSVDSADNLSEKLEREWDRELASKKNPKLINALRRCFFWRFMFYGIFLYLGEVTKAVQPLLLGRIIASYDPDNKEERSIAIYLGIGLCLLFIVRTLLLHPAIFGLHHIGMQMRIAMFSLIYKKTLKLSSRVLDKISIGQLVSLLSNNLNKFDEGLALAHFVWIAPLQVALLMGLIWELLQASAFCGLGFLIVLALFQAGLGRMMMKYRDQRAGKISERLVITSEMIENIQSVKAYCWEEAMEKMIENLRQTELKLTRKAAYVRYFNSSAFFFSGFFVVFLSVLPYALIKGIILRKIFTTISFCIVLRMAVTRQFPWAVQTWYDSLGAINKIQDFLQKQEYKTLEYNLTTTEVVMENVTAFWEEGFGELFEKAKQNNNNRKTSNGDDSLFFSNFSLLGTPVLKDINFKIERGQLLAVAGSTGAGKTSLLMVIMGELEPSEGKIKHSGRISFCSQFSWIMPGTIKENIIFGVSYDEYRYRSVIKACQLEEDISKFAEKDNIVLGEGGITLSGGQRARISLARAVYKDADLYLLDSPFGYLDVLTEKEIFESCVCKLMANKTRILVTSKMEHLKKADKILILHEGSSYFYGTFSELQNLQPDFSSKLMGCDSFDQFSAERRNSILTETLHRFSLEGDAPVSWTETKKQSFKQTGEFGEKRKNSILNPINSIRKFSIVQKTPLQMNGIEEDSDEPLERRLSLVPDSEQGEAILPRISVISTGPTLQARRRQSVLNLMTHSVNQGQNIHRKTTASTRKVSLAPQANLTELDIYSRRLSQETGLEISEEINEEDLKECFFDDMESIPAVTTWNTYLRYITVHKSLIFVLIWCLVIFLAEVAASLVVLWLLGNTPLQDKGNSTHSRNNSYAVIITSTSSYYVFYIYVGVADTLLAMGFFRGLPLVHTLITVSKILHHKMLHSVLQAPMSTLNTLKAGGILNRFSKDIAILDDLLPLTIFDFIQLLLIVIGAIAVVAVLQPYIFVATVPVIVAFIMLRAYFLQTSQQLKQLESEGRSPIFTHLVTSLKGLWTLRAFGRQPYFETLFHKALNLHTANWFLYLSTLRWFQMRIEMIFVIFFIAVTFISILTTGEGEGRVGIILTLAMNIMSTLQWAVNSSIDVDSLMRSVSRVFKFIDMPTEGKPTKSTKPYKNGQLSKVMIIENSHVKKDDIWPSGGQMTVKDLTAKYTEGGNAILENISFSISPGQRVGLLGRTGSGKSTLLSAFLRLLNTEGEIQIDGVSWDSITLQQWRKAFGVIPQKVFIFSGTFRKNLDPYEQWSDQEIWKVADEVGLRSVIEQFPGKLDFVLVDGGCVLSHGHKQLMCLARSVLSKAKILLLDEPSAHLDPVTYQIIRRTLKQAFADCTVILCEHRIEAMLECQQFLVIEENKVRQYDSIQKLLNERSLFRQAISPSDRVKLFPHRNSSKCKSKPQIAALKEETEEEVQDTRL", "test": "Ussing chamber short-circuit current (ion transport via CFTR)", "type": "cell-based", "settings": "for short circuit current differential after addition of tritoqualine: tritoqualine 10 μM; for effect of Inh172 on cell potential: CFTR inh172 10 μM", "source_text": "To investigate this action on CFTR modulation, the inventors used the Ussing chamber method, invented by the Dane Hans H. Ussing in the late 1950s. This technique makes it possible to study ionic exchanges across an epithelium, as it allows the tissue of interest to be kept alive for a few hours under controlled conditions of temperature and medium. The positioning of the tissue between two half-chambers makes it possible to define an apical compartment (corresponding to the lumen of the organ) and a basolateral compartment (corresponding to the blood compartment) and to investigate exchanges between these two compartments via the tissue.\nThis technique is used as a routine and is particularly well adapted for a pharmacological approach to ionic transport and to search for molecules of therapeutic interest in the context of ionic secretions of epithelial cells. It consists in measuring the transepithelial current (known as the short-circuit current and noted Ise). Ise is expressed in amperes to unit area of the epithelium (Ise in μA/cm^2). The cells are grown on a porous filter for 10 to 15 days at the liquid-liquid interface and then air-liquid interface in order to mimic conditions close to in vivo. The transepithelial resistance is measured regularly when culturing. The higher this resistance is (several hundred ohms), the more the epithelial tissue is junctive, polarised and therefore tight. At the air (apical side)-liquid (basolateral side) interface the epithelial cells polarise and form a tight mat which can be investigated with the Ussing chamber technique. A system with 6 Physiology Instrument® cuvettes allowing 6 experiments in parallel has been used.\nThe inventors have used USSING chambers to analyse the activity of tritoqualine on CFTR of glandular epithelial cells.\nTypical protocols used for human epithelial cells expressing non-mutated CFTR:\nMeasurement of short circuit current in the presence of amiloride (ENaC channel inhibitor, 100 μM) followed by addition of 10 μM of the tritoqualine molecule and then addition of CFTR inh172 (10 μM, CFTR inhibitor) followed by addition of UTP (100 μM, validates the experiment by activating the calcium-sensitive Cl transport).\nMeasurement of short circuit current in the presence of amiloride (100 μM) and forskolin (0.05 μM activator of intracellular cAMP) then addition of 10 μM of the tritoqualine molecule then addition of CFTRinh172 (10 μM) then addition of UTP (100 μM).\nMeasurement of the short circuit current in the presence of CFTR Inh172 (10 μM) then addition of tritoqualine and forskolin (0.05 μM) then addition of UTP.\nThe inventors have prepared a 100 μM stock solution in DMSO. The compounds have been aliquoted per 100 μL and stored at −20° C.\nTritoqualine has been added to USSING cells at a dose of 10 μM in non-mutated cells FIG. 5."}, "histidine decarboxylase": {"biological_target": "T2, histidine decarboxylase (Homo sapiens, UniProt P19113)", "T2 sequence (P19113 1-662)": "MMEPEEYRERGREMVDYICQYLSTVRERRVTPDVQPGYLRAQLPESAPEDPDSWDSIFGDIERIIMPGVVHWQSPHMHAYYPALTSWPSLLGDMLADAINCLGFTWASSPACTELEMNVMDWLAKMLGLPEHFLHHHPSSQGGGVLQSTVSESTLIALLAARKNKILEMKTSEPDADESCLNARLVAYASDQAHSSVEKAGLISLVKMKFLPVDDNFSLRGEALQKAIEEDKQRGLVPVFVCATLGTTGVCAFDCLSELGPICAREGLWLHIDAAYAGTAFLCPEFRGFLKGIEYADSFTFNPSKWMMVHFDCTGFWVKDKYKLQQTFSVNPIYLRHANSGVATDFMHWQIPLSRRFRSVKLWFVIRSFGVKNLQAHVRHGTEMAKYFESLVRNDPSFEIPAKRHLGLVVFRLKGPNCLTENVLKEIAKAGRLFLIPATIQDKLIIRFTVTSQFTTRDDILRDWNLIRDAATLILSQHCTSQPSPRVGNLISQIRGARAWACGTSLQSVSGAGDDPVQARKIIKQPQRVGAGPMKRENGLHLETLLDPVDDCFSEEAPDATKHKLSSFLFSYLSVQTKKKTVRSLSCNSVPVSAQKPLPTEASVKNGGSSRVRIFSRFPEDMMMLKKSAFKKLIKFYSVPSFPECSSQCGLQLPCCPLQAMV", "settings": "known anti-allergic activity; cited from earlier work"}, "[1]": {"settings": "cited from earlier work"}, "NK 1 receptor": {"biological_target": "T3, NK 1 receptor (Homo sapiens, UniProt P25103)", "T3 construct": "human NK1 tachykinin receptor in the astrocytoma cell line U 373 MG; endogenous in cells; host or cells: U 373 MG human astrocytoma cells (per the cited method)", "T3 sequence (P25103 whole entry)": "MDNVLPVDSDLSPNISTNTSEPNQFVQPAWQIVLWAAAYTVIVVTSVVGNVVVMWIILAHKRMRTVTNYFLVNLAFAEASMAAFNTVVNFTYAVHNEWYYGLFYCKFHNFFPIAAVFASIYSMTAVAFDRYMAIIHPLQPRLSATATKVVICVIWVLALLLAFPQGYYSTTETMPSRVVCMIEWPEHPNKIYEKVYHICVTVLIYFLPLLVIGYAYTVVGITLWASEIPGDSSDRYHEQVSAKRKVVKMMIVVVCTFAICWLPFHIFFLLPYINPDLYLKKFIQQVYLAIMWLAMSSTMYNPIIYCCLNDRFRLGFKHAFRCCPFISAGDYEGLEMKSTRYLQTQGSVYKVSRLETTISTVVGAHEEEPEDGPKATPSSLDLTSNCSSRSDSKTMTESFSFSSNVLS", "test": "NK 1 receptor binding (method of Heuillet et al.)", "settings": "FIG. 8", "protocol": "Tritoqualine has been tested on the NK 1 receptor according to the method described by Heuillet et al., Characterization of a human NK1 tachykinin receptor in the astrocytoma cell line U 373 MG. Heuillet E et al. Neurochem. 1993 March."}}, "note": "Read-outs that look alike come from different tables or passages of the source. Where no end group is shown, it is not given here.", "data": [{"compound": "CCOc1c(N)c2c(c(OCC)c1OCC)C(C1c3c(cc4c(c3OC)OCO4)CCN1C)OC2=O", "note": "(stereo not drawn) [tritoqualine, AMINO-7 TRIETHOXY-4,5,6 OXO-1 DIHYDRO-1,3 ISOBENZOFURANNYL-3)-1METHOXY-8METHYL-2METHYLENEDIOXY-6,7TETRAHYDRO-,2,3,4ISOQUINOLINE]", "values": [{"measurement": "degranulation after substance P in presence of tritoqualine", "setting": "basophils; tritoqualine 10 pmoles (FIG. 10: 10 μM), then substance P, after 30 minutes, as with the negative control", "value": "around 7%"}, {"measurement": "EC50", "setting": "non-mutated CFTR; apical pole, FIG. 2, read-out: EC50 activity, apical pole", "value": 3.42, "unit": "µM"}, {"measurement": "EC50", "setting": "non-mutated CFTR; basal pole, FIG. 3, read-out: EC50, basal pole", "value": 4.87, "unit": "µM"}, {"measurement": "short circuit current differential after addition of tritoqualine", "setting": "non-mutated CFTR; non-mutated epithelial cells, apical side, increases from 16", "value": "more than 20 μA/cm^2"}, {"measurement": "short circuit current differential after addition of tritoqualine", "setting": "non-mutated CFTR; non-mutated lacrimal gland epithelial cells, printed 'apical side' (second experiment), increases from 6.5", "value": "more than 7.5 μA/cm^2"}, {"measurement": "inhibitory action on histidine decarboxylase", "setting": "histidine decarboxylase", "value": "very weak"}, {"measurement": "solubility in benzene and acetone", "setting": "[1]; benzene and acetone", "value": "sparingly soluble"}, {"measurement": "solubility in water", "setting": "[1]; water", "value": "Insoluble"}, {"measurement": "affinity (percent inhibition) on NK 1 receptor", "setting": "NK 1 receptor", "value": 97, "unit": "%"}]}, {"compound": "O=C(O)c1ccc(C=C2SC(=S)N(c3cccc(C(F)(F)F)c3)C2=O)cc1", "note": "[Inh172]", "values": [{"measurement": "effect of Inh172 on cell potential", "setting": "non-mutated CFTR; non-mutated epithelial cells, apical side", "value": "completely blocks"}, {"measurement": "effect of Inh172 on cell potential", "setting": "non-mutated CFTR; non-mutated lacrimal gland epithelial cells (second experiment)", "value": "completely blocks"}]}, {"compound": "substance P: NK 1 agonist (supplier Sigma-Aldrich) (RPKPQQFFGLM-NH2; UniProt P20366 58-68, looked up)", "values": [{"measurement": "CD63 present on the basophil (degranulation)", "setting": "basophils; substance P at 10 μmoles, basophils of 2 patients", "value": 70, "unit": "%"}]}]}
